Data reported in US20080220449A1, “Biomarkers and assays for Alzheimer's disease” (OLIGOMERIX, INC., priority 2007, published 2008).
“Also recorded” adds a separate entry of the source.

Columns and labels:
soluble tau oligomer = assay: Modified ELISA (mAb HT7 capture, biotinylated mAb HT7 reporter) for curcumin effect on tau-oligomer levels in CSF; type: biochemical, human
Description: FIG. 6 is a schematic diagram illustrating an exemplary method and assay that utilizes standard and modified ELISA to detect tau-monomer, tau pT217, soluble tau oligomer, and tau-amyloid-beta 1-42 complex. Formation of tau oligomers was analyzed using two different ELISA methods to provide verified data. The “modified” ELISA uses the same monoclonal antibody for capture and detection. Insoluble aggregates are removed in the ELISA procedure during washing steps. Only soluble aggregates of tau, not monomers, are detected with this ELISA because the detection and reporter antibody recognizes an epitope which is present only once within tau. […]
Modified ELISA to determine tau-oligomer levels in CSF: Tau oligomer level was determined using modified sandwich ELISA where mAb HT7 against tau was used for capture and biotinylated mAb HT7 as the reporter. […]
Sample preparation: A 5 mM stock solution of curcumin was prepared in 100% ethanol. […] The incubated samples were diluted to 500 μL in buffer and analyzed for tau-oligomers by modified ELISA as described in FIG. 6. […]
(§1) Data analysis for Example 11 (FIG. 13) and Example 12 (FIG. 14) was measured as a percent decrease in tau-oligomers, upon incubation with curcumin. […]
(§2) FU=(Average fluorescence of triplicate wells for each sample-average fluorescence of the antibody blank wells). […]

[1] = target: T1, tau oligomers containing tau without c-terminal truncation (Homo sapiens, UniProt P10636); assay: ELISA with mAb T46 capture and pAb A11 reporter for curcumin effect on tau-oligomer levels in CSF; type: biochemical; settings: same CSF sample from a patient having severe AD; sample preparation as in Example 11
T1 construct: only tau oligomers containing tau without c-terminal truncation would be detected; from tissue; host or cells: cerebrospinal fluid of a severe AD patient (post mortem, New York Brain Bank)
T1 sequence (P10636 1-441 isoform P10636-8): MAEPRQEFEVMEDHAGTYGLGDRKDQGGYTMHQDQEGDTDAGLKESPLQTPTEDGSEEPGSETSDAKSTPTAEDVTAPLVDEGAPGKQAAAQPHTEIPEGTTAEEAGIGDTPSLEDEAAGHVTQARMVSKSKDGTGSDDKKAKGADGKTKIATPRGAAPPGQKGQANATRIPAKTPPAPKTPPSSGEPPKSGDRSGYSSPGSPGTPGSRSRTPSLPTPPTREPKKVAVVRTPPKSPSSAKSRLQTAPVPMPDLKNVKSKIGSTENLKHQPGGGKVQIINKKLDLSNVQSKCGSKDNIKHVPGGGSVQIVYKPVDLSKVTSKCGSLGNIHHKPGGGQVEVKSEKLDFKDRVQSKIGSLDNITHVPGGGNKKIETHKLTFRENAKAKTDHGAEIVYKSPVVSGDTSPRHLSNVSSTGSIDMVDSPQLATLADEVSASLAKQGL
Description: Tau oligomer levels based on oligomer conformation was determined using a standard sandwich ELISA where mAb HT7 against tau was used for capture, as mentioned in FIG. 2 (Example 1). After incubation with CSF samples (see FIG. 2 legend) the plates were washed and 100 uL rabbit pAb A11, specific for protein oligomer conformation, was diluted 1000-fold and added to each well. The plate was incubated for one hour at 37° C. and washed. Biotinylated goat anti-rabbit antibody was diluted 10,000-fold in PBST and 50 μL was added to each well. Plates were incubated for 30 min. at 37° C. Detection was done using HRP-neutravidin and QuantaBlu fluorogenic substrate as described for FIG. 2 (Example 1). The results are shown in FIG. 8 (4 severe AD, 5 AD and 3 non-AD CSF samples were tested). Here the assay is specific for tau in association with oligomer conformation and can detect soluble tau oligomers. The combination of a monoclonal antibody against tau with an antibody specific for oligomer conformation is novel. […]
Tau oligomer levels in CSF were determined using antibodies specific for oligomer conformation and tau with intact c-terminus. […]
as §1, §2

With `COc1cc(/C=C/C(=O)CC(=O)/C=C/c2ccc(O)c(OC)c2)ccc1O` [curcumin] the “percent decrease in tau-oligomers upon incubation with curcumin (FIG. 13)” value (soluble tau oligomer; CSF from three different severe AD patients, 5 uL of 20 uM curcumin in total volume of 100 uL, one hour at 37° C.) was “disruption of soluble tau oligomer; also recorded: reduction of tau oligomer levels”, the “percent decrease in tau-oligomers upon incubation with curcumin (FIG. 14, modified ELISA format)” value (soluble tau oligomer; one CSF sample from a patient having severe AD, sample preparation as in Example 11) was “reduction of tau oligomer levels” and the “percent decrease in tau-oligomers upon incubation with curcumin (FIG. 14, mAb T46 / pAb A11 format)” value [1] was “reduction of tau oligomer levels”.
